pIC50: −log10 of the molar value.
Experiments:
Human PI3K alpha = target: T1, Human PI3K alpha (Homo sapiens, UniProt P42336); test: Human PI3K alpha enzyme assay (HTRF); format: biochemical; details: for pIC50: read-out: PI3Kalpha IC50; for inhibition at 1.1 µM: at a 1.1 μM concentration, read-out: PI3Kα Percent Inhibition
T1 construct: His (N); host or cells: SF9 insect cells (baculovirus)
From the text: (§1) The catalytic subunits of PI3Ks are cloned into either pDEST8(p110 alpha) or pDEST10(p110beta, p110delta, and p110gamma) as N-terminal His tagged fusion proteins using the Gateway system (Invitrogen, catalog#11804-010 for pDEST8 and 11806-015 for pDEST10). The sequences are verified before recombinant protein expression using the Baculovirus Expression System with Gateway® Technology. The accession numbers for the subunits are as follows: • p110 alpha (GB:U79143) • p110beta (GB: S67334) • p110delta (GB: U86453) • p110gamma (GB: X83368) • The regulatory subunits of PI3Ks are cloned into pDEST8 as un-tagged protein using the Gateway system (Catalog#11804-010). The sequences are verified before recombinant protein expression using the Baculovirus Expression System with Gateway® Technology. The accession numbers for the subunits are as following: • p85 alpha (GB: BC030815) • p101(GB: AB028925) • VPS34 (accession number GB:BC033004) is cloned into pDEST20—Thombin as N-terminal GST tagged fusion proteins using the Gateway system (Invitrogen, catalog#11804-013). The sequences are verified before recombinant protein expression using the Baculovirus Expression System with Gateway® Technology.
(§2) For expression of the p110 complexes, the p85 (MOI of 4) is co-infected with p110 alpha, beta, and delta respectively (1MOI) in SF9 cells and harvested at 60 hours post co-infection. P110 gamma was infected at 1 MOI and harvested at 60 hours post infection.
(§3) For purification, PI3Ks are purified by Ni-NTA Agarose (Qiagen #30250) followed by Mono Q 10/100 GL (Ge Healthcare #17-5167-01). VPS34 is purified by Glutathione Sepharose 4 Fast Flow (GE Healthcare #17-5132-03) followed by HiTrap Q (GE Healthcare #17-1153-01).
1) Human PI3K alpha enzyme assay method
(§4) 0.5 uL compounds in DMSO are added to wells of a 384 well microtitre plate (Corning 3575). At room temperature: 10 ul PI3K reaction buffer (50 mM Hepes, 5 mM DTT, 150 mM NaCl, 10 mM beta-glycerophosphate, 10 mM MgCl2, 0.25 mM sodium cholate and 0.001% CHAPS, pH 7.00) containing ATP (25 uM, Promega) is added followed immediately by 10 ul PI3K reaction buffer containing di-C8 P1(4,5)P2 (3.5 uM, CellSignals) and PI3Kalpha (0.4875 nM, Millennium Protein Sciences Group) and the mixture is incubated with shaking at room temperature for 30 minutes. Then 5 ul PI3K stop mix (50 mM Hepes, 5 mM DTT, 150 mM NaCl, 0.01% Tween-20, 15 mM EDTA and 25 nM biotin-PI(3,4,5)P3 (Echelon) is added to quench the reaction followed immediately by addition of 5 ul HTRF detection mix (50 mM Hepes, 5 mM DTT, 150 mM NaCl, 0.01% Tween-20, 40 mM KF, 1.0 nM GST:GRP-1 PH domain (Millennium Protein Sciences Group), 15 nM Streptavidin-XL (CisBio) and 0.375 nM anti-GST Eu++ antibody (CisBio) at pH 7.00). The plates are then incubated for 1 hour at room temperature with shaking and then read on a BMG PheraStar Plus reader.
(§5) For the assay methods described above, test compound percent inhibition, at various concentrations, is calculated relative to control (DMSO and EDTA) treated samples. Compound concentration versus percent inhibition curves are fitted to generate IC50 values. One skilled in the art will appreciate that the values generated either as percentage inhibition at a single concentration or IC50 values are subject to experimental variation.

Human PI3K beta = target: T2, Human PI3K beta (Homo sapiens, UniProt P42338); test: Human PI3K beta enzyme assay (HTRF); format: biochemical; details: for pIC50: read-out: PI3 Kbeta IC50; for inhibition at 1.1 µM: at a 1.1 μM concentration, read-out: PI3β Percent Inhibition
T2 construct: His (N); host or cells: SF9 insect cells (baculovirus)
From the text: as §1, §2, §3, §4
2) Human PI3K beta, delta and gamma isoforms are tested using the procedure described for PI3K alpha above but with the following changes: PI3K beta (5.25 nM), PI3K delta (0.75 nM) and PI3K gamma (5 nM). All isoforms supplied by Millennium Protein Science Group.
as §5

T2 sequence (P42338 whole entry): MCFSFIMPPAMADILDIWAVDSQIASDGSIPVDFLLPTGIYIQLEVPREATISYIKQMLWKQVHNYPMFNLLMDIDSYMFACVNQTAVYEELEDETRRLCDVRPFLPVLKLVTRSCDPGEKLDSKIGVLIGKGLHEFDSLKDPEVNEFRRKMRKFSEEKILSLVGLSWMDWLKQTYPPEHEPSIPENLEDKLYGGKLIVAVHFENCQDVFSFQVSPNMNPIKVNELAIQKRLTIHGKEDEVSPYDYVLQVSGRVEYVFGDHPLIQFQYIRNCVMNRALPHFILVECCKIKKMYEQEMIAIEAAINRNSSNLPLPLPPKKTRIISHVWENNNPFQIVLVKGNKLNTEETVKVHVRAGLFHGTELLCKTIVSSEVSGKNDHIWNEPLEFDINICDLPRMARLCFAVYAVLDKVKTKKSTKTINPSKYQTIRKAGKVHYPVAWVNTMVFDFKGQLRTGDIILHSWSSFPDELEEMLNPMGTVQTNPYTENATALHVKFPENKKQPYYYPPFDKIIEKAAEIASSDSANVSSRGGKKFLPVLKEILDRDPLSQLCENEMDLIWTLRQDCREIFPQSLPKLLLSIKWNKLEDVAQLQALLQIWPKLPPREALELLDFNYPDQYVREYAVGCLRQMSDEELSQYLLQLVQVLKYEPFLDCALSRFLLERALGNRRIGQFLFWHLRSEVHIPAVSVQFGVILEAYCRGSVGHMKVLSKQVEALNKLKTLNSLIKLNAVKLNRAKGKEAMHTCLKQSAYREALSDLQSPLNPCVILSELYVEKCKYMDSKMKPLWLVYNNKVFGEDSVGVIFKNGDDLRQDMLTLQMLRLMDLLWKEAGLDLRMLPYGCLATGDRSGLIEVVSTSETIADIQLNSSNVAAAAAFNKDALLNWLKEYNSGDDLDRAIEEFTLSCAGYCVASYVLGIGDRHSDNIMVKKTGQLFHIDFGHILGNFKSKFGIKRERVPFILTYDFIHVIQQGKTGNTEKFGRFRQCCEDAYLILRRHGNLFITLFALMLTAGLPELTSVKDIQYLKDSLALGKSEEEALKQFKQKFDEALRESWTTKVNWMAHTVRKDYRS
T2 sequence (P27986 whole entry partner): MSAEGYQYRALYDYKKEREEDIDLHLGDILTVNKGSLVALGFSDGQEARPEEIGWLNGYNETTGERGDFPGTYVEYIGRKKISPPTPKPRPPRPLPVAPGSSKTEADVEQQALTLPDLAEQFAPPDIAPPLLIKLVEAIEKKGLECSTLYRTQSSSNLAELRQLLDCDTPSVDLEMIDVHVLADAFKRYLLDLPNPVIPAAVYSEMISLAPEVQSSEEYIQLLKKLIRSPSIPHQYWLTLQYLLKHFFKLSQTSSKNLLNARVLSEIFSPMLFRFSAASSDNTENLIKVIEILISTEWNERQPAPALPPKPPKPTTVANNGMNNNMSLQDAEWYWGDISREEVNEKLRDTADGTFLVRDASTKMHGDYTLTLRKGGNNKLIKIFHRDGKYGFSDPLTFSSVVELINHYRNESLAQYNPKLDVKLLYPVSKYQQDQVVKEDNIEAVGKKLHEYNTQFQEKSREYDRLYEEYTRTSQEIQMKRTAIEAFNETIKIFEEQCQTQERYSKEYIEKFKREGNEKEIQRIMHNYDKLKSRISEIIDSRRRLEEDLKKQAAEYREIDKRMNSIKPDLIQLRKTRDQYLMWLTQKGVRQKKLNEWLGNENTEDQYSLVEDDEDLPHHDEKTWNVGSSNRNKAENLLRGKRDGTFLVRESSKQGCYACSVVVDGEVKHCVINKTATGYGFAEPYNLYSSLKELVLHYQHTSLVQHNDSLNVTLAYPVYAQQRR
T1 sequence (P42336 whole entry): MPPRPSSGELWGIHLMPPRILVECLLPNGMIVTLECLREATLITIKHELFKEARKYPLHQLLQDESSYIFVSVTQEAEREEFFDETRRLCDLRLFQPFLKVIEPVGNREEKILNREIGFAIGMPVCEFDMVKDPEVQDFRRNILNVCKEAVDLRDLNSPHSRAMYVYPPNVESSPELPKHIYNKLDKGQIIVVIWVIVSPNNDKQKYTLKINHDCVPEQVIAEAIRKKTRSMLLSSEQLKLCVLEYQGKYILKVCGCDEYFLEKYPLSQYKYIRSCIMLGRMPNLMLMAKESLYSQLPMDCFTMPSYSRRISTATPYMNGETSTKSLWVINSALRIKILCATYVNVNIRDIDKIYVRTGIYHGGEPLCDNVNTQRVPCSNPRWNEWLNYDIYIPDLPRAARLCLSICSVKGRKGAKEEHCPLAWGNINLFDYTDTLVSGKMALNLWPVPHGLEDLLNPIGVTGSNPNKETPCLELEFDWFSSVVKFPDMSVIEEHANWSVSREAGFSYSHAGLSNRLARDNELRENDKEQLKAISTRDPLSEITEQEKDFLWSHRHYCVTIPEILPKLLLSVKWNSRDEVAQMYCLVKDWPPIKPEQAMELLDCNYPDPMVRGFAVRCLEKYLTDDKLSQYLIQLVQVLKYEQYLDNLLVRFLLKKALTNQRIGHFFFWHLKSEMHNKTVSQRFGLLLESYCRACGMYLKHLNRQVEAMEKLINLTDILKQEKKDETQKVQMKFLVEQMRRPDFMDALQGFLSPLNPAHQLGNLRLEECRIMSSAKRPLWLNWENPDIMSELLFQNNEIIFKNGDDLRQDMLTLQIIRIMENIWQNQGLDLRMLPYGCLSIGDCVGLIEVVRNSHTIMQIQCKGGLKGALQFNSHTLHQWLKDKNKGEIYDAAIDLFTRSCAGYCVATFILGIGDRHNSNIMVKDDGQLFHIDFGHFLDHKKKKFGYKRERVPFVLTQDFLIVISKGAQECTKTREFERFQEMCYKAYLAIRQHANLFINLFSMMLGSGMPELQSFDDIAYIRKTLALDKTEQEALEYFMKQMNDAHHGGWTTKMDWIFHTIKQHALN
T1 sequence (P27986 whole entry partner): as the sequence (P27986 whole entry partner) above

SMILES	pIC50 (Human PI3K alpha)	pIC50 (Human PI3K beta)	inhibition at 1.1 µM (Human PI3K alpha) [%]	inhibition at 1.1 µM (Human PI3K beta) [%]
CC(=O)Nc1cc(-c2nc(Cc3ccc(C)cc3)c(-c3ncc[nH]3)s2)ccn1 [Compound 24]	6.00 to 7.00	< 6.00		
O=C(O)c1sc(N2CCOCC2)nc1Cc1ccc2c(c1)OCCO2 [Compound 110, 4-(2,3-dihydro-1,4-benzodioxin-6-ylmethyl)-2-(morpholin-4-yl)-1,3-thiazole-5-carboxylic acid]			5	41
O[C@H](c1ccc(Cl)cc1)c1cc(-c2ccnc(F)c2)sc1-c1nnc[nH]1 [Compound 45]	< 6.00	> 7.00		
O[C@@H](c1ccc(Cl)cc1)c1cc(-c2ccnc(Cl)c2)sc1-c1nnc[nH]1 (single isomer, unassigned) [Compound 40]	6.00 to 7.00	6.00 to 7.00		
OCc1cc(-c2cc(C(O)c3ccc(Cl)cc3)c(-c3nnc[nH]3)s2)ccn1 (stereo not shown) [Compound 8]	< 6.00	6.00 to 7.00		
N#Cc1c(-c2ccnnc2)sc(-c2nnc[nH]2)c1Cc1ccc(Cl)cc1 [Compound 89]	< 6.00	6.00 to 7.00		
OC(c1ccc(Cl)cc1)c1cc(-c2ccnc(-n3ccnc3)c2)sc1-c1nnc[nH]1 (stereo not shown) [Compound 28]	6.00 to 7.00	6.00 to 7.00		
CC(=O)Nc1cc(-c2sc(C(=O)O)c(Cc3ccc(Cl)cc3)c2C#N)ccn1 [Compound 74]	6.00 to 7.00	6.00 to 7.00		
Clc1ccc(Cc2nc(-c3ccnc4[nH]ccc34)sc2-c2ncn[nH]2)cc1 [Compound 53]	6.00 to 7.00	6.00 to 7.00		
OC(c1ccc(Cl)cc1)c1cc(-c2ncncc2F)sc1-c1nnc[nH]1 (stereo not shown) [Compound 68]	< 6.00	6.00 to 7.00		
Cc1nn2ccc(CNC(=O)c3cnccn3)cc2c1-c1nc(Cc2ccc(Cl)cc2)c(-c2nnc[nH]2)s1 [Compound 50, N-({3-[4-(4-chlorobenzyl)-5-(4H-1,2,4-triazol-3-yl)-1,3-thiazol-2-yl]-2-methylpyrazolo[1,5-a]pyridin-5-yl}methyl)pyrazine-2-carboxamide]	> 7.00	> 7.00		
CC(=O)Nc1cc(-c2nc(Cc3ccc(Cl)cc3)c(-c3ncn[nH]3)s2)ccn1 [Compound 56, N-{4-[4-(4-chlorobenzyl)-5-(4H-1,2,4-triazol-3-yl)-1,3-thiazol-2-yl]pyridin-2-yl}acetamide]	6.00 to 7.00	6.00 to 7.00		
Cc1cc(-c2cc([C@@H](O)c3ccc(Cl)cc3)c(-c3nnc[nH]3)s2)ccn1 (single isomer, unassigned) [Compound 69]	< 6.00	6.00 to 7.00		
CC(=O)Nc1cc(-c2cc(C(O)c3ccc(Cl)cc3)c(-c3nnc[nH]3)s2)ccn1 (stereo not shown) [Compound 41]	> 7.00	> 7.00		
O=C(O)c1sc(N2CCOCC2)nc1Cc1ccc(Cl)cc1F [Compound 101]			30	105
O=c1ccnc(-c2sc(-c3ccncc3)nc2Cc2ccc(Cl)cc2)[nH]1 [Compound 92, 2-(4-(4-chlorobenzyl)-2-(pyridin-4-yl)thiazol-5-yl)pyrimidin-4(3H)-one]	< 6.00	> 7.00		
Clc1ccc(Cc2nc(-c3ccnc(Cl)c3)sc2-c2nnc[nH]2)cc1 [Compound 47, 4-(4-chlorobenzyl)-2-(2-chloropyridin-4-yl)-5-(4H-1,2,4-triazol-3-yl)thiazole]	< 6.00	6.00 to 7.00		
Clc1ccc(Cc2nc(-c3ccncc3)sc2-c2nnc[nH]2)cc1 [Compound 76, 4-(4-chlorobenzyl)-2-(pyridin-4-yl)-5-(4H-1,2,4-triazol-3-yl)thiazole]	< 6.00	6.00 to 7.00		
CNc1cc(-c2cc(C(O)c3ccc(Cl)cc3)c(-c3nnc[nH]3)s2)ccn1 (stereo not shown) [Compound 62]	< 6.00	6.00 to 7.00		

SMILES	pIC50 (Human PI3K alpha)	pIC50 (Human PI3K beta)	inhibition at 1.1 µM (Human PI3K alpha) [%]	inhibition at 1.1 µM (Human PI3K beta) [%]
OC(c1ccc(Cl)cc1)c1cc(-c2ccnc3ccccc23)sc1-c1nnc[nH]1 (stereo not shown) [Compound 42]	6.00 to 7.00	6.00 to 7.00		
CN(C)C(c1ccc(Cl)cc1)c1cc(-c2ccncc2)sc1-c1nnc[nH]1 (stereo not shown) [Compound 9, 1-(4-chlorophenyl)-N,N-dimethyl-1-[5-pyridin-4-yl-2-(4H-1,2,4-triazol-3-yl)-3-thienyl]methanamine]	< 6.00	> 7.00		
OC(c1ccc(Cl)cc1)c1cc(-c2ccnc(F)c2)sc1-c1nnc[nH]1 (stereo not shown) [Compound 21, (4-chlorophenyl)[5-(2-fluoropyridin-4-yl)-2-(4H-1,2,4-triazol-3-yl)-3-thienyl]methanol]	< 6.00	> 7.00		
Cc1cc(-c2cc(C(O)c3ccc(Cl)cc3)c(-c3nnc[nH]3)s2)ccn1 (stereo not shown) [Compound 11]	< 6.00	> 7.00		
N#Cc1c(-c2ccncc2)sc(C(=O)O)c1Cc1ccc(Cl)cc1 [Compound 36]	< 6.00	> 7.00		
Cc1nn2ccc(CN3CCC(N)CC3)cc2c1-c1nc(Cc2ccc(Cl)cc2)c(-c2nnc[nH]2)s1 [Compound 61]	6.00 to 7.00	6.00 to 7.00		
O[C@@H](c1ccc(Cl)cc1)c1cc(-c2ccnc(F)c2)sc1-c1nnc[nH]1 [Compound 26]	< 6.00	6.00 to 7.00		
OC(c1ccc(Cl)cc1)c1cc(-c2ccncc2F)sc1-c1nnc[nH]1 (stereo not shown) [Compound 16]	< 6.00	> 7.00		
Nc1nccc(-c2cc(C(O)c3ccc(Cl)cc3)c(-c3nnc[nH]3)s2)n1 (stereo not shown) [Compound 23]	< 6.00	6.00 to 7.00		
Clc1ccc(Cc2nc(-c3ccncc3)sc2-c2cnc[nH]2)cc1 [Compound 66, 4-(4-chlorobenzyl)-5-(1H-imidazol-5-yl)-2-(pyridin-4-yl)thiazole]	< 6.00	> 7.00		
OCCNc1cc(-c2cc(C(O)c3ccc(Cl)cc3)c(-c3nnc[nH]3)s2)ccn1 (stereo not shown) [Compound 49, 2-({4-[4-[(4-chlorophenyl)(hydroxy)methyl]-5-(4H-1,2,4-triazol-3-yl)-2-thienyl]pyridin-2-yl}amino)ethanol]	< 6.00	< 6.00		
O[C@H](c1ccc(Cl)cc1)c1cc(-c2ccncc2)sc1-c1nnc[nH]1 [Compound 77]	< 6.00	> 7.00		
Nc1cc(-c2cc(C(O)c3ccc(Cl)cc3)c(-c3nnc[nH]3)s2)ccn1 (stereo not shown) [Compound 75]	< 6.00	> 7.00		
CC(=O)Nc1cc(-c2cc(C(c3ccc(Cl)cc3)N(C)C)c(-c3nnc[nH]3)s2)ccn1 (stereo not shown) [Compound 86]	6.00 to 7.00	> 7.00		
OC(c1ccc(Cl)cc1)c1cc(-c2ccnnc2)sc1-c1nnc[nH]1 (stereo not shown) [Compound 79]	< 6.00	6.00 to 7.00		
Clc1ccc(Cc2nc(-c3ccncc3)sc2-c2ccc[nH]2)cc1 [Compound 22, 4-(4-chlorobenzyl)-2-(pyridin-4-yl)-5-(1H-pyrrol-2-yl)thiazole]	< 6.00	< 6.00		
OC(c1ccc(Cl)cc1)c1cc(-c2ccncc2)sc1-c1nnc[nH]1 (stereo not shown) [Compound 52]	< 6.00	> 7.00		
CC(=O)Nc1cc(-c2nc(NC(=O)c3ccccc3)c(-c3ncc[nH]3)s2)ccn1 [Compound 29, N-(2-(2-acetamidopyridin-4-yl)-5-(1H-imidazol-2-yl)thiazol-4-yl)benzamide]	> 7.00	< 6.00		
O=C1CCc2c(-c3cc(C(O)c4ccc(Cl)cc4)c(-c4nnc[nH]4)s3)ccnc2N1 (stereo not shown) [Compound 64]	6.00 to 7.00	6.00 to 7.00		

Reference: patent US8796268B2, “Heteroaryls and uses thereof” (Millennium Pharmaceuticals, Inc., priority 2010, dated 2014)
